Read-outs that look alike come from different tables or passages of the source.
Experiments:
U87-MG-luc GBM cell line = test: U87-MG-luc tumors implanted cerebrally in mice, monotherapy; format: in vivo, athymic nude mice; conditions: 30 mg/kg oral QD, 28 days, p=0.0023 on day 28
Procedure: Male athymic nude mice were injected A) subcutaneously (s.c.) or B) cerebrally (i.e.) with 1×10^5 U87-MG-luc cells in Matrigel. Animals implanted i.e. were imaged to monitor tumor establishment and growth throughout the study using an In Vivo Imaging System (IVIS) once weekly, detecting tumor bioluminescence (BLI) in photons. For animals implanted s.c., tumor growth was monitored twice weekly by caliper measurement and tumor volume calculated using the equation V=(L×W×W)/2, where V is tumor volume, L is tumor length (the longest tumor dimension) and W is tumor width (the longest tumor dimension perpendicular to L). Upon confirmation of tumor establishment, animals were randomly allocated into 3 (A, s.c.) or 2 (B, i.e.) treatment groups (n=8 animals per group) consisting of vehicle (0.5% methycellulose, 1% Tween 80 P.O. and saline I.V.) or Compound of formula (I) [CoF (I)] formulated as a suspension in 0.5% methycellulose and 1% Tween 80. The treatments were administered over a 28 day cycle and compound of formula (I) was administered orally at a dose of either 30 mg/kg (for both A and B) or 60 mg/kg (for A only), once daily (QD)). […] Mortality and observed clinical signs were recorded for individual animals in detail.

in vivo = test: in vivo; design: species or system cynomolgus monkeys; conditions: female, cynomolgus monkey, po
Procedure: Compound of formula (I) was orally given to 3 female cynomolgus monkeys by gavage once a day for 91 days. The volume of administration was 5 mL/kg, and the vehicle was an aqueous solution of 0.5% (w/v) methylcellulose (cps 400) and 1% (w/v) Tween 80. The Compound of formula (I) dose was 10 mg/kg; this dose level was assessed in this study to be the […] no adverse effect level (NOAEL) based on general toxicology evaluation. The animals were necropsied 24 hours after the last dose after an overnight period without food. A sample from brain tissue (left forebrain) was collected from each animal, snap frozen in liquid nitrogen. and stored frozen at <−50° C. Blood samples were taken from the femoral vein into tubes containing K2EDTA, fully inverted approximately 10 times, and placed on crushed wet ice until centrifugation at 2300 g for 10 minutes at approximately 4° C. The resultant plasma was separated, transferred into polypropylene tubes, and frozen at <−50° C. Tissue and plasma samples were transported frozen on dry ice to the respective sites of analysis.

[1] = CSF and matching plasma concentrations in glioma patients (clinical trial Arms A and B); format: in vivo, human
Procedure: In the clinical trial described in Example 9, cerebrospinal fluid (CSF) stabilized with formic acid 0.5% and matching plasma samples collected on K2 EDTA were drawn from 3 patients of Arm A on day 11 of cycle 1 (i.e. 2 patients at 150 mg and 1 patient at 200 mg of Study drug) and 1 patient of Arm B on Week 3 day 1 (i.e. Day 15 after daily doses of Study drug at 90 mg).
Study drug (parent, active moiety) and its active metabolite N^32-desmethyl-Study drug were measured using LC-MS/MS methods. Results were provided in ng per mL of plasma or CSF, and then converted to nmol/L using the molecular weights of the Study drug (511.45 g/mol) and N^32-desmethyl-Study drug (497.42 g/mol).
Thus, the unbound (or free fraction) of the Study Drug and the N^32-desmethyl-Study drug are calculated.
In CSF, the total protein concentration varies between 0.2% and 0.5% of the total protein concentration of blood (H. Reiber, Clinica Chimica Acta, 2001; Schilde L M et al., PLoS ONE, 2018), therefore the concentration measured in CSF essentially corresponds to the free fraction of the compounds.
For each of the 4 patients, the ratio CSF/plasma of a given compound (Study drug parent or metabolite) was calculated using the CSF concentration of said compound (in nmol/L) and the unbound or free fraction of said compound in plasma (in nmol/L).

## Cc1cc(Nc2ncc3c(n2)N(C)CN(c2c(Cl)cccc2Cl)C3=O)ccc1C1CCN(C)CC1 [Compound of formula (I)]
U87-MG-luc GBM cell line
  Tumor size (relative BLI) vs vehicle controls at end of treatment: significantly smaller tumors than vehicle controls
In vivo
  NOAEL at 91 days: 10 mg/kg
[1]; Arm A, 150 mg, day 11 of cycle 1, listed as Study drug
  CSF to “unbound plasma” ratio: 0.33
[1]; human, CSF / unbound plasma, 90 mg, Arm B, 90 mg daily, Week 3 day 1 (Day 15), read-out: CSF to “unbound plasma” ratio
  Kp at 15 day: 0.42
[1]; human, CSF / unbound plasma, 150 mg, Arm A, 150 mg, day 11 of cycle 1, read-out: CSF to “unbound plasma” ratio
  Kp at 11 day: 0.35
[1]; human, CSF / unbound plasma, 200 mg, Arm A, 200 mg, day 11 of cycle 1, read-out: CSF to “unbound plasma” ratio
  Kp at 11 day: 0.38
[1]; human, CSF, 90 mg, Arm B, 90 mg daily, Week 3 day 1 (Day 15), read-out: CSF concentration
  concentration at 15 day: 21.3 nM
[1]; human, CSF, 90 mg, Arm B, 90 mg daily, Week 3 day 1 (Day 15), read-out: Raw data concentration in CSF
  concentration at 15 day: 10.9 ng/mL
[1]; human, CSF, 200 mg, Arm A, 200 mg, day 11 of cycle 1, read-out: CSF concentration
  concentration at 11 day: 19.8 nM
[1]; human, CSF, 200 mg, Arm A, 200 mg, day 11 of cycle 1, read-out: Raw data concentration in CSF
  concentration at 11 day: 10.1 ng/mL
[1]; human, CSF/unbound plasma, 4 patients, Arms A and B, read-out: CSF/plasma ratio
  Kp: 0.33 to 0.42
[1]; human, plasma (unbound), 90 mg, Arm B, 90 mg daily, Week 3 day 1 (Day 15), read-out: Unbound plasma concentration
  concentration at 15 day: 50.3 nM
[1]; human, plasma (unbound), 200 mg, Arm A, 200 mg, day 11 of cycle 1, read-out: Unbound plasma concentration
  concentration at 11 day: 52.4 nM
[1]; human, plasma, 90 mg, Arm B, 90 mg daily, Week 3 day 1 (Day 15), read-out: Raw data concentration in plasma
  concentration at 15 day: 309 ng/mL
[1]; human, plasma, 200 mg, Arm A, 200 mg, day 11 of cycle 1, read-out: Raw data concentration in plasma
  concentration at 11 day: 322 ng/mL

From patent publication US20260256790A1, “DEBIO-0123 IN COMBINATION WITH TEMOZOLOMIDE AND RADIOTHERAPY FOR USE IN TREATING GLIOMA” (Debiopharm International S.A., priority 2023, published 2026)
